Source: BindingDB's records for patent US20250179055 (Innovstone Therapeutics, 2025)

Molecular target: Apolipoprotein(a) (Homo sapiens, UniProt P08519)
Test: Methods of ELISA Assay on Screening Lp(a) Assembly Inhibition
Description: 1) Added 100 μL of capture antibody to each well of a pre-coated ELISA plate and incubated overnight at 25° C.2) Added 300 μL of washing solution to each well and washed 5 times for 1 min each time.3) Added 100 μL of blocking solution to each well and incubated at 25° C. for 2 h.4) Added 300 μL of washing solution to each well and washed 5 times for 1 min each time.5) Added 100 μL of sample to each well and incubated at 25° C. for 1 h.6) Added 300 μL of washing solution to each well and washed 5 times for 1 min each time.7) Added 100 μL of detection antibody to each well and incubated at 25° C. for 1 h.8) Added 300 μL of washing solution to each well and washed 5 times for 1 min each time.9) Added 100 μL substrate solution (Color Reagent A: Color Reagent B, 1:1) to each well and incubated for 20 min at 25° C. in the dark.10) Added […] of stop solution to each well, gently blowed and sucked several times with the pipette tip, and read within 5 min.

Chain of Apolipoprotein(a) (P08519 whole entry): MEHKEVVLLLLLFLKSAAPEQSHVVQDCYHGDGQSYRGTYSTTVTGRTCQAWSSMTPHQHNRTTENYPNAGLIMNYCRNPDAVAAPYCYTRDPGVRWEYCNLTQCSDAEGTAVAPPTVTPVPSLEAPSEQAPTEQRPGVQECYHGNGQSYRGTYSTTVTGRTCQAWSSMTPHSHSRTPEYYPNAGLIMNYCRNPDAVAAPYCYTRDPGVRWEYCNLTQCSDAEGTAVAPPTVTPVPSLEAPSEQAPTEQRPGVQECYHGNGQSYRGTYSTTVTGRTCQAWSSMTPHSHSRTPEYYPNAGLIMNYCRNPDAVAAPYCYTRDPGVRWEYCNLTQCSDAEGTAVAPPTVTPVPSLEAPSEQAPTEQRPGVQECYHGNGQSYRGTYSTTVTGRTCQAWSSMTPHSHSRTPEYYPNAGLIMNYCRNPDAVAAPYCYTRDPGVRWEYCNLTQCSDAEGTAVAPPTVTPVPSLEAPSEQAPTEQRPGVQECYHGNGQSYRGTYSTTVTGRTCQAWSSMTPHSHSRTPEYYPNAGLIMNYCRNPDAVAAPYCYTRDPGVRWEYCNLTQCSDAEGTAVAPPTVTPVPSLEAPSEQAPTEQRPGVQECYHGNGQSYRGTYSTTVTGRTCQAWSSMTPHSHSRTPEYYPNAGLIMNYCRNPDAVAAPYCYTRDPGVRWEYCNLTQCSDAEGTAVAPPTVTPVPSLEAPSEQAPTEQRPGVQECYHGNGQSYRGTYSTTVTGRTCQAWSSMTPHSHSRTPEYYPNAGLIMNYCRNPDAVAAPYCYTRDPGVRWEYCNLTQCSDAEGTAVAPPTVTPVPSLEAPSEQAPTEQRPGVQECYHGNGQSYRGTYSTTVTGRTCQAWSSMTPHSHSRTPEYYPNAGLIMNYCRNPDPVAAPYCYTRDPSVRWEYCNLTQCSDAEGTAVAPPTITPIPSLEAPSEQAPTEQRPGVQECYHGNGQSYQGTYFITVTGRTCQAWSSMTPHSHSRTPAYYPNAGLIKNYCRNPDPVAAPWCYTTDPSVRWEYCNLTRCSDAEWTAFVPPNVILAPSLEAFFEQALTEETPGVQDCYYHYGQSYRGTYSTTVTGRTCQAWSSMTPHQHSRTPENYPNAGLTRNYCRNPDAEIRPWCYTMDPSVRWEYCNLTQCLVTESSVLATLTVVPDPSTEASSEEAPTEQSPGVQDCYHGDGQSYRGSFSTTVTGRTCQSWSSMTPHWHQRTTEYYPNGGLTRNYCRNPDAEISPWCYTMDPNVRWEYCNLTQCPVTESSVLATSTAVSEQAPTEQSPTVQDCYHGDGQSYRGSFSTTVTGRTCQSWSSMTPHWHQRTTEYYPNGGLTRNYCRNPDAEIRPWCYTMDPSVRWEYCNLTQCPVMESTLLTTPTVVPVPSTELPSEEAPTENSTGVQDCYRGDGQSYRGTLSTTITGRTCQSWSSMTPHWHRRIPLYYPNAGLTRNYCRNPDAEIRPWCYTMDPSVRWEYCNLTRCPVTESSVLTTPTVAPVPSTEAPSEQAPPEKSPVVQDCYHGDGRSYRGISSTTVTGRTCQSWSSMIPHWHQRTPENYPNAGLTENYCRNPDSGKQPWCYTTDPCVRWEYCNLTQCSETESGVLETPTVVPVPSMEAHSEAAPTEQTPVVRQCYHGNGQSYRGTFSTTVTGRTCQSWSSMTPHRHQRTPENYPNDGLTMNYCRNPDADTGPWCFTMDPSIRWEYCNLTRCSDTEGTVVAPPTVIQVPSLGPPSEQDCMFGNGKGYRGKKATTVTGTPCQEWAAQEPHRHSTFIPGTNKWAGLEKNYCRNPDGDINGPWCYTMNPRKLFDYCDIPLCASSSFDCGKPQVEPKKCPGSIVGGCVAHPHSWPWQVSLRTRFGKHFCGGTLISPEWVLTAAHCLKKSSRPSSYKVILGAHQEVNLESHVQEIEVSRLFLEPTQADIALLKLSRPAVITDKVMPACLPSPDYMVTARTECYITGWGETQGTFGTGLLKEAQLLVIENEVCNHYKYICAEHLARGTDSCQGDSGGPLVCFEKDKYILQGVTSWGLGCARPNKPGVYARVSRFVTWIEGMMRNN

O=C(O)[C@@H](Cc1cc2cc(CN(Cc3ccc4oc(C[C@H](C(=O)O)[C@H]5CCNC5)cc4c3)Cc3ccc4oc(C[C@H](C(=O)O)[C@H]5CCNC5)cc4c3)ccc2o1)[C@H]1CCNC1 [US20250179055, Compound 127]
IC50: 0.9 nM
